Tests used:
ruminal microbes = test: In situ ruminal incubation of samples in Dacron bags for 24 hours
Text: The in situ procedure utilizes small in situ bags made of a nitrogen-free synthetic polyester fabric (Dacron®; Ankom Technology, Mecedon, N.Y.) that has a 50 μm pore size. The pores are sufficiently small such that when feed materials are placed into the bag the contents are retained. The pore size also is large enough to allow for entry of microorganisms into the bag when placed into the rumen, thus exposing the contents to the degradative actions of ruminal microbes. Disappearance of feed particles from the bag is presumed to be due to microbial fermentative activity whilst the bag and its contents are suspended within the rumen environment. In situ assays provide useful information regarding the susceptibility of feeds to microbial digestion within the rumen.
The test procedure consisted of adding 12 g of sample (as is) to Dacron bags, which then were heat sealed and subsequently placed into the rumen and allowed to incubate for 24 hours. Bags then were removed from the rumen, dried and weighed to determine disappearance of dry matter. Concentrations of protein, total fatty acids, and fatty acid profile were determined for the residue from each sample. Samples were prepared in duplicate within each animal, along with blank bags for correction, and six animals were used. Three cattle were fed a high-concentrate diet and 3 were fed a high-forage, i.e., low concentrate diet.
These values were used to calculate the extent of dry matter and nutrient disappearance during the in situ digestion procedure.

[1] = tested on: microorganisms within the rumen ecosystem; conditions: Montgomery et al., J Anim Sci. 86(3):640-50; cited from earlier work

Structure (SMILES)	ruminally degraded / disappearance of dry matter, over Low and High concentrate groups (ruminal microbes; 24-hour period of ruminal incubation, text summary of Table VII) [%]	In situ dry matter disappearance (%), Mean (ruminal microbes; 24 hours of ruminal incubation, average of Low and High concentrate groups) [%]	In situ dry matter disappearance (%), High Concentrate (ruminal microbes; 24 hours of ruminal incubation, cattle on high-concentrate diet) [%]	In situ dry matter disappearance (%), Low Concentrate (ruminal microbes; 24 hours of ruminal incubation, cattle on high-forage/low concentrate diet) [%]	dietary ALA available for absorption in the postruminal digestive tract [1]
Cl.NCCCC[C@H](N)C(=O)O [Lysine, lysine hydrochloride]	≥ 99.83	99.86	99.83	99.88	
CC/C=C\C/C=C\C/C=C\CCCCCCCC(=O)O [ALA, Alpha-linolenic acid]					less than 5%

From patent US20130136827A1, “Method and Composition for Increasing The Proportion of Dietary Ingredients That Are Resistant To Degradation by Ruminal Microorganisms” (priority 2011, published 2013)
